Tested on: hyaluronidase
Assay: Hyaluronic Acid Viscometry Assay (degradation of HA by hyaluronidase)
Assay type: biochemical
Description: The time for the sample to run through the viscometer was proportional to the viscosity of HA in the sample, which, in turn, was proportional to the molecular weight of the HA. As the enzyme (hyaluronidase) breaks down HA, the molecular weight of the polymer is reduced, the viscosity of the solution drops, and the solution runs through the viscometer more rapidly. Accordingly, shorter run times indicated lower molecular weights of HA (i.e., more breakdown of the HA by hyaluronidase), whereas longer times indicated higher molecular weights of HA (i.e., less breakdown of the HA by hyaluronidase).
0.07% HA solutions were prepared as follows: […] and […] pH 5.5 phosphate buffer (1 M) were combined in a scintillation vial. […] The solutions were allowed to dissolve overnight at 37° C. The pH's were checked and adjusted to 6.0. The viscosity of the solutions was analyzed by measuring the run time through an Ubbelohde PC1 viscometer. 50 μl of hyaluronidase (4.2 mg in 620 ul of water) was added per vial (final concentration approximately 6 units/ml) and incubated overnight with shaking. A viscometer reading was recorded for each solution after overnight incubation.

[1] = 10 mg/ml, without enzyme (Example 4)

| Compound | Time (minutes) for sample to run through viscometer (0 mg/ml (so in the source), with enzyme (Example 4)) | Degradation of HA (% viscosity relative to control t = 0) (10 mg/ml, with hyaluronidase (Example 2)) | Time (minutes) for sample to run through viscometer [1] | Effect on hyaluronidase (viscosity of HA solution versus enzyme control) (Example 2, concentrations of Table 2) | Effect on hyaluronidase (viscosity of HA solution versus enzyme control) (Example 4, 10 mg/ml) | Time (minutes) for sample to run through viscometer (10 mg/ml, with enzyme (Example 4)) |
| --- | --- | --- | --- | --- | --- | --- |
| CC(O)CO (centres unmarked) [Propylene glycol] | 5 min | 65% | 5.85 min | inhibit the action of hyaluronidase | inhibit the action of hyaluronidase | – |
| SPAN 80 | – | – | 5.5 min | – | inhibit the action of hyaluronidase | 4.36 min |

Reference: patent publication US20060040894A1, “Compositions and methods using hyaluronic acid” (Angiotech International AG, priority 2004, published 2006)
